The source of these data is patent US8828988B2 (Tetraphase Pharmaceuticals, Inc., priority 2009, dated 2014).

Format in all cases: cell-based
The subject of test [1] is Staphylococcus aureus SA101, ATCC 29213, MSSA. Description: MIC assay, SA101.
Test [2] relates to S. pneumoniae clinical isolates. Description: MIC50, MIC90 and MIC range, panel of clinical isolates (Example 20). The note with it: 19 isolates, in µg/mL. As for the experimental part:
(§1) The assays were run as follows.
(§2) Both values, as well as the MIC range (the lowest and highest MIC value observed for a collection of organisms), were determined for the isolates listed in Table 3.

The subject of test [3] is S. aureus clinical isolates. The description is as above. The note with it: MRSA, 30 isolates; in µg/mL. As for the experimental part: as §1, §2
Test [4] has as its system E. faecalis clinical isolates. The test is described as above. The following applies: 24 isolates, in µg/mL. The procedure: as §1, §2
Test [5] concerns Streptococcus pneumoniae SP160, tetracycline-resistant, tet(M). Description: MIC assay, SP160.
The test system of test [6] is tet(K) strains of S. aureus. The test can be described thus: MIC, CLSI methodology, recent clinical isolates (Example 21). The note with it: Staphylococcus aureus, read-out: MIC against tet(K) strains of S. aureus. As for the experimental part:
as §1
(§3) The antibacterial activities of Compounds MIC values were determined according to CLSI methodology. Recent clinical isolates were obtained from Eurofins-Medinet. Antibiotics were obtained from standard commercial sources.

In test [7] the test system is tet(M) and tet(S) strains of E. faecalis. Described as above. The note with it: Enterococcus faecalis, read-out: MIC against tet(M) and tet(S) strains of E. faecalis. The procedure:
as §1, §3

In brackets after ≈: the same amount, converted by molar mass. Read-outs that look alike come from different tables or passages of the source. Where only a bound is given, the exact number is not on record here.

As a reminder, the MIC is the smallest concentration in the dilution series that meets the test's criterion for growth inhibition. As for `CN(C)CC(C)(C)CNc1nc(Cl)c2c(c1O)C(=O)C1=C(O)[C@]3(O)C(=O)C(C(N)=O)=C(O)[C@@H](N(C)C)[C@@H]3C[C@@H]1C2` [Compound 151], the MIC in test [1] (Table 8, read-out: MIC S. aureus ATCC 29213) is 0.25 µg/mL (≈ 0.432 µM); in test [1] (Table 9, read-out: MIC S. aureus ATCC 29213) it was 0.25 µg/mL (≈ 0.432 µM); in test [5] (Table 8, read-out: MIC S. pneumoniae tetM) it was 0.5 µg/mL (≈ 0.865 µM); in test [5] (Table 9, read-out: MIC S. pneum SP160 (tet)M), 0.125 µg/mL (≈ 0.216 µM); in test [6] it was not above 1 µg/mL; in test [7], not above 4 µg/mL. Moreover, the “MIC Range” value in test [2] is listed as “<=0.016-0.25”; in test [3] it was 0.5-8; in test [4], 0.031-4.
